Each compound was assayed against T1, human Tie2 (Homo sapiens, UniProt Q02763) (assay: Tie2 kinase inhibition: phosphorylation of GST-PLC (SH2-SH3 fragments) by GST-Tie2, 33P-ATP flashplate). Details: read-out: Tie2 % Inhib. 10 μM.
T1 construct: human Tie2 corresponding to amino acids 776-1124 of the intracellular domain was generated by PCR; made in house; host or cells: baculovirus expression system (vector pFastBacGT)
Format: biochemical
Method: The coding sequence of human Tie2 corresponding to amino acids 776-1124 of the intracellular domain was generated by PCR using the cDNA isolated from human placenta as model. This sequence was introduced into a baculovirus expression vector pFastBacGT in the form of a GST fusion protein.
The inhibitory effect of the molecules is determined in an assay for phosphorylation of PLC by Tie2 in the presence of GST-Tie2 purified to approximately 80% homogeneity. The substrate is made up of the SH2-SH3 fragments of PLC, the latter being expressed in the form of a GST fusion protein.
The kinase activity of Tie2 is measured in a 20 mM MOPS buffer, pH 7.2, containing 10 mM MgCl2, 10 mM MnCl2, 1 mM DTT and 10 mM of glycerophosphate. A reaction mixture made up of 70 μl of kinase buffer containing 100 ng of GST-Tie2 enzyme per well is placed in a flashplate 96-well plate kept on ice. 10 μl of the molecule to be tested, diluted in DMSO, at a concentration of at most 10% are then added. For a given concentration, each measurement is carried out in quadruplicate. The reaction is initiated by adding 20 μl of solution containing 2 μg of GST-PLC, 2 μM of cold ATP and 1 μCi of ^33P[ATP]. After incubation for 1 hour at 37° C., the reaction is stopped by adding 1 volume (100 μl) of 200 mM EDTA. After removal of the incubation buffer, the wells are washed three times with 300 μl of PBS. The radioactivity is measured on a Wallac MicroBeta 1450.
The inhibition of the Tie2 activity is calculated and expressed as percentage inhibition with respect to the control activity determined in the absence of compound.

T1 sequence (Q02763 776-1124): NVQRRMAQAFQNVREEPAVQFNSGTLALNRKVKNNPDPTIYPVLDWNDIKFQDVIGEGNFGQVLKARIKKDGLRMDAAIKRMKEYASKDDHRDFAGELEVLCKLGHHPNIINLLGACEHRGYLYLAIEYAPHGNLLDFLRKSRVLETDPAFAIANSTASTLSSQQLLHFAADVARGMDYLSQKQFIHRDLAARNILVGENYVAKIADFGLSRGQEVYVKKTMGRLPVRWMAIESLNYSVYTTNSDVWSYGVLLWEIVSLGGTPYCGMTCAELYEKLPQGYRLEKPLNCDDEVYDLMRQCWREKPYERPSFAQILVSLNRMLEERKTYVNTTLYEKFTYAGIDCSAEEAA

| Structure (SMILES) | inhibition at 10 µM [%] |
| --- | --- |
| Cc1cc2nc(-c3[nH]nc4c3CCN(Cc3cccs3)C4)[nH]c2cc1C [Chemistry 13] | 41.5 |
| Cc1cc2nc(-c3[nH]nc4c3CCN(c3ccc(NS(=O)(=O)c5cccs5)cn3)C4)[nH]c2cc1C | 100 |
| COc1cc(C)ccc1S(=O)(=O)Nc1ccc(N2CCc3c(n[nH]c3-c3nc4cc(C)c(C)cc4[nH]3)C2)nc1 | 98 |
| COc1ccccc1S(=O)(=O)N1CCc2c(-c3nc4cc(C)c(C)cc4[nH]3)n[nH]c2C1 [Chemistry 39] | 97.9 |
| Cc1cc2nc(-c3[nH]nc4c3CCN(CC3CC3)C4)[nH]c2cc1C [Chemistry 21] | 33 |
| COc1ccc(S(=O)(=O)Nc2ccc(N3CCc4c(n[nH]c4-c4nc5cc(C)c(C)cc5[nH]4)C3)nc2)cc1 | 99 |
| Cc1cc2nc(-c3[nH]nc4c3CCN(C)C4)[nH]c2cc1C [Chemistry 7] | 48.6 |
| Cc1cc2nc(-c3[nH]nc4c3CCNC4)[nH]c2cc1C [Chemistry 22] | 24.9 |
| Cc1cc2nc(-c3[nH]nc4c3CCN(c3ccc(NS(=O)(=O)c5ccccc5Cl)cn3)C4)[nH]c2cc1C | 100 |

More lines, now with the values ahead:

| inhibition at 10 µM [%] | Structure (SMILES) |
| --- | --- |
| 82.4 | Cc1cc2nc(-c3[nH]nc4c3CCN(C(=O)CCc3ccccc3)C4)[nH]c2cc1C [Chemistry 50] |
| 86.3 | Cc1cc2nc(-c3[nH]nc4c3CCN(C(=O)c3ccccc3)C4)[nH]c2cc1C [Chemistry 41] |
| 94.1 | Cc1cc2nc(-c3[nH]nc4c3CCN(C(=O)C3CC3)C4)[nH]c2cc1C [Chemistry 45] |
| 81.3 | Cc1cc2nc(-c3[nH]nc4c3CCN(C(=O)C(C)(C)C)C4)[nH]c2cc1C [Chemistry 54] |
| 96.7 | Cc1cc2nc(-c3[nH]nc4c3CCN(C(=O)c3ccccc3Cl)C4)[nH]c2cc1C [Chemistry 46] |
| 90.8 | CC(=O)N1CCc2c(n[nH]c2-c2nc3cc(C)c(C)cc3[nH]2)C1 [Chemistry 44] |
| 90.8 | Cc1cc2nc(-c3[nH]nc4c3CCN(S(=O)(=O)c3ccccc3C)C4)[nH]c2cc1C [Chemistry 36] |

Each compound was assayed against T2, human KDR enzyme (Homo sapiens, UniProt P35968) (assay: KDR kinase inhibition: phosphorylation of PLCγ SH2-SH3 substrate by KDR enzyme, 33P-ATP scintillation plate). Details: read-out: KDR % Inhib. 10 μM.
T2 construct: The cytoplasmic domain of the human KDR enzyme was cloned in GST fusion form; GST; made in house; host or cells: SF21 insect cells (baculovirus, pFastBac)
T2 sequence (P35968 786-1356 limits assumed): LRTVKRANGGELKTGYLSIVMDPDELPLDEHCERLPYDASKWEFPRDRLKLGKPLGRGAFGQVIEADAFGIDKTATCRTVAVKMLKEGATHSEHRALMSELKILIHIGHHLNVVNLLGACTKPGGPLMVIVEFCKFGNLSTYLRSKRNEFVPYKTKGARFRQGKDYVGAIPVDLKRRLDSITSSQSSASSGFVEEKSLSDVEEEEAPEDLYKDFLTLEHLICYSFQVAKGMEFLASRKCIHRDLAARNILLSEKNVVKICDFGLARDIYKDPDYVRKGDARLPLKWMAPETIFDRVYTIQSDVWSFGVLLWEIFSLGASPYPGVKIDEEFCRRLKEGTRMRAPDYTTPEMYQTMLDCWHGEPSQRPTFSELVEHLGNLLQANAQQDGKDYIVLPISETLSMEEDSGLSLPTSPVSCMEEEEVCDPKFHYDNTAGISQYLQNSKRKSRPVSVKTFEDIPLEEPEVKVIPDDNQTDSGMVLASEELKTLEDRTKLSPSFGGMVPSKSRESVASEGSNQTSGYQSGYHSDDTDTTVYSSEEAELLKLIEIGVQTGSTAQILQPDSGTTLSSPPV
Format: biochemical
Method: The inhibitory effect of the compounds is determined in an assay for phosphorylation of substrate by the KDR enzyme in vitro using a scintillation technique (96-well plate, NEN).
The cytoplasmic domain of the human KDR enzyme was cloned in GST fusion form into the baculovirus expression vector pFastBac. The protein was expressed in SF21 cells and purified to approximately 60% homogeneity. The KDR kinase activity is measured in 20 mM MOPS, 10 mM MgCl2, 10 mM MnCl2, 1 mM DTT, 2.5 mM EGTA, 10 mM b-glycerophosphate, pH=7.2, in the presence of 10 mM MgCl2, 100 μM Na3VO4 and 1 mM NaF. 10 μl of the compound are added to 70 μl of kinase buffer containing 100 ng of KDR enzyme at 4° C. The reaction is initiated by adding 20 μl of solution containing 2 μg of substrate (SH2-SH3 fragment of PLCγ expressed in the form of an GST fusion protein), 2 μCi γ ^33P[ATP] and 2 μM cold ATP. After incubation for 1 hour at 37° C., the reaction is stopped by adding 1 volume (100 μl) of 200 mM EDTA. The incubation buffer is removed and the wells are washed three times with 300 μl of PBS. The radioactivity is measured in each well using a Top Count NXT (Packard) radioactivity counter.
The background noise is determined by measuring the radioactivity in four different wells containing the radioactive ATP and the substrate alone.
A total activity control is measured in four different wells containing all the reagents (γ^33P-[ATP], KDR and PLC-γ substrate) but in the absence of compound.
The inhibition of the KDR activity with the compound of the invention is expressed as percentage inhibition of the control activity determined in the absence of compound.
The compound SU5614 (Calbiochem) (1 μM) is included in each plate as inhibition control.

| Structure (SMILES) | inhibition at 10 µM [%] |
| --- | --- |
| Cc1cc2nc(-c3[nH]nc4c3CCN(Cc3cccs3)C4)[nH]c2cc1C [Chemistry 13] | 84.5 |
| Cc1cc2nc(-c3[nH]nc4c3CCN(S(C)(=O)=O)C4)[nH]c2cc1C [Chemistry 3] | 78.1 |
| COc1ccccc1S(=O)(=O)N1CCc2c(-c3nc4cc(C)c(C)cc4[nH]3)n[nH]c2C1 [Chemistry 39] | 30.9 |
| Cc1cc2nc(-c3[nH]nc4c3CCN(CC3CC3)C4)[nH]c2cc1C [Chemistry 21] | 1.85 |
| Cc1cc2nc(-c3[nH]nc4c3CCN(C)C4)[nH]c2cc1C [Chemistry 7] | 12.2 |
| Cc1cc2nc(-c3[nH]nc4c3CCNC4)[nH]c2cc1C [Chemistry 22] | 3.65 |

Continued, values first:

| inhibition at 10 µM [%] | Structure (SMILES) |
| --- | --- |
| 74.8 | Cc1cc2nc(-c3[nH]nc4c3CCN(C(=O)CCc3ccccc3)C4)[nH]c2cc1C [Chemistry 50] |
| 72.5 | Cc1cc2nc(-c3[nH]nc4c3CCN(C(=O)c3ccccc3)C4)[nH]c2cc1C [Chemistry 41] |
| 33.4 | Cc1cc2nc(-c3[nH]nc4c3CCN(C(=O)C3CC3)C4)[nH]c2cc1C [Chemistry 45] |
| 11.2 | Cc1cc2nc(-c3[nH]nc4c3CCN(C(=O)C(C)(C)C)C4)[nH]c2cc1C [Chemistry 54] |
| 73 | Cc1cc2nc(-c3[nH]nc4c3CCN(C(=O)c3ccccc3Cl)C4)[nH]c2cc1C [Chemistry 46] |
| 41.1 | CC(=O)N1CCc2c(n[nH]c2-c2nc3cc(C)c(C)cc3[nH]2)C1 [Chemistry 44] |
| 49.4 | Cc1cc2nc(-c3[nH]nc4c3CCN(S(=O)(=O)c3ccccc3C)C4)[nH]c2cc1C [Chemistry 36] |
| 88.8 | Cc1cc2nc(-c3[nH]nc4c3CCN(Cc3cccc(Cl)c3)C4)[nH]c2cc1C [Chemistry 5] |
| 77.2 | Cc1cc2nc(-c3[nH]nc4c3CCN(C(=O)NCCc3ccccc3)C4)[nH]c2cc1C [Chemistry 2] |
| 25.4 | Cc1cc2nc(-c3[nH]nc4c3CCN(C(=O)c3cccnc3)C4)[nH]c2cc1C [Chemistry 4] |

From patent publication US7435820B2, “Substituted tetrahydro-1H-pyrazolo [3,4-c]pyridines compositions comprising them, and use” (Aventis Pharma S.A., priority 2003, dated 2008)
